According to patent US20170334899A1, “AMINO-SUBSTITUTED ISOTHIAZOLES” (Bayer Pharma Aktiengesellschaft, priority 2014, published 2017):
Where a name gives a salt, the structure may show the parent alone.

Target: T1, human kinase Mps-1 (Homo sapiens, UniProt P33981)
T1 construct: N-terminally GST-tagged human full length recombinant Mps-1 kinase; GST (N); purchased Invitrogen, Karslruhe, Germany PV4071
T1 sequence (P33981 1-857): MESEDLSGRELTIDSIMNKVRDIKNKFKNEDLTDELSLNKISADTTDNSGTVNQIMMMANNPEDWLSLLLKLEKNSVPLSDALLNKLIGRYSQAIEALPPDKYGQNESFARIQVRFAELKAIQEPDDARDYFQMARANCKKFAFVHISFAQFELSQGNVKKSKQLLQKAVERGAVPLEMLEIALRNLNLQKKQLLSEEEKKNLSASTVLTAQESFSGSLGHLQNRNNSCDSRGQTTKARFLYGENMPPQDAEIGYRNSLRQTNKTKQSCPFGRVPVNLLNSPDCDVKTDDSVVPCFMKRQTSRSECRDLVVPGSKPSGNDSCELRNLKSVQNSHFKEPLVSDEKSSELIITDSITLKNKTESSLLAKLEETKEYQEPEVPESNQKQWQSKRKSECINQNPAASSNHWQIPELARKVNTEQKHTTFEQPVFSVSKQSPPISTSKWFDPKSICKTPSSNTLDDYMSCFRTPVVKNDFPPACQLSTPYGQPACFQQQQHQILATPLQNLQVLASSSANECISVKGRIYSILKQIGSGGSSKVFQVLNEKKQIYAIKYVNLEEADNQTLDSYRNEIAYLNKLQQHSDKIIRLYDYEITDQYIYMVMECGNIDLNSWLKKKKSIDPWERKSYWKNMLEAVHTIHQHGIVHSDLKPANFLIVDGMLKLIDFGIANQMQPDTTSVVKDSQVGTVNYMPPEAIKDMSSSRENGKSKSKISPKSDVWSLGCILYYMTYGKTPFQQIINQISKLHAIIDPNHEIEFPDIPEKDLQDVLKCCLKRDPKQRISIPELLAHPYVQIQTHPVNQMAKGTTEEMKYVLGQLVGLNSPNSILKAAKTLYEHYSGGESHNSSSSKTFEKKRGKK
Assay: Mps-1 kinase assay (TR-FRET)
Assay type: biochemical
Conditions: Mps-1 TR-FRET kinase assay; avg; read-out: Mps1 avg (IC50 [mol/l])
Outline: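 GST-tagged full-length recombinant human Mps-1 (~0.5 nM) pre-incubated 15 min with compound, then reacted 60 min at 22 °C with 10 μM ATP and 1 μM biotinylated peptide in Hepes pH 7.7 buffer. EDTA-stopped; TR-FRET (Eu anti-phospho-Ser/Thr to SA-XLent) 665/620 nm ratio normalised to no-inhibitor and no-enzyme controls.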

| IC50 [µM] | SMILES |
| --- | --- |
| 6.5 | Cc1nsc(Nc2cnc3ccccc3n2)c1C(=O)Nc1cccc(C(=O)N[C@H](C(=O)O)[C@@H](C)O)c1 [Example 105, N-[3-({[3-methyl-5-(quinoxalin-2-ylamino)-1,2-thiazol-4-yl]carbonyl}amino)-benzoyl]threonine] |
| ≥ 20 | Cc1nsc(Nc2cnc3ccccc3n2)c1C(=O)Nc1ccc(S(C)(=O)=O)cc1 [Example 115, 3-Methyl-N-[4-(methylsulfonyl)phenyl]-5-(quinoxalin-2-ylamino)-1,2-thiazole-4-carboxamide] |
| 16 | Cc1nsc(Nc2cnc3ccccc3n2)c1C(=O)Nc1cccc(C(=O)N[C@H](C(=O)O)[C@@H](C)OC(C)(C)C)c1 [Example 104, O-tert-Butyl-N-[3-({[3-methyl-5-(quinoxalin-2-ylamino)-1,2-thiazol-4-yl]-carbonyl}amino)benzoyl]threonine] |
| ≥ 20 | CCNS(=O)(=O)c1ccc(NC(=O)c2c(C)nsc2Nc2cnc3ccccc3n2)cc1 [Example 116, N-[4-(Ethylsulfamoyl)phenyl]-3-methyl-5-(quinoxalin-2-ylamino)-1,2-thiazole-4-carboxamide] |

Further lines, the compound ahead of its results:

| SMILES | IC50 [µM] |
| --- | --- |
| Cc1nsc(Nc2cnc(C(F)(F)F)cn2)c1C(=O)Nc1ccc(O[C@H]2CCN(CC(F)F)C[C@H]2F)nc1 [Example 144, N-(6-{[(3R,4S)-1-(2,2-difluoroethyl)-3-fluoropiperidin-4-yl]oxy}pyridin-3-yl)-3-methyl-5-{[5-(trifluoromethyl)pyrazin-2-yl]amino}-1,2-thiazole-4-carboxamide] | > 20 |
| Cc1nsc(Nc2cnc3ccccc3n2)c1C(=O)Nc1ccc(C(=O)NC2CN(C(=O)OC(C)(C)C)CC(F)(F)C2)cc1 (stereo not drawn) [Example 158, tert-butyl 3,3-difluoro-5-{[4-({[3-methyl-5-(quinoxalin-2-ylamino)-1,2-thiazol-4-yl]carbonyl}amino)benzoyl]amino} piperidine-1-carboxylate] | > 20 |
| Cc1nsc(Nc2cncc(C(F)(F)F)n2)c1C(=O)Nc1ccc(OCC2CCCN(C(=O)OC(C)(C)C)C2)nc1 (stereo not drawn) [Example 166, tert-butyl 3-{[(5-{[(3-methyl-5-{[6-(trifluoromethyl)pyrazin-2-yl]amino}-1,2-thiazol-4-yl)carbonyl]amino}pyridin-2-yl)oxy]methyl}piperidine-1-carboxylate] | > 20 |
| Cc1nsc(Nc2cnc(C(F)(F)F)cn2)c1C(=O)Nc1ccc(O[C@@H]2CCN(CC(F)F)C[C@@H]2F)nc1 [Example 137, N-(6-{[(3S,4R)-1-(2,2-difluoroethyl)-3-fluoropiperidin-4-yl]oxy}pyridin-3-yl)-3-methyl-5-{[5-(trifluoromethyl)pyrazin-2-yl]amino}-1,2-thiazole-4-carboxamide] | > 20 |
| Cc1nsc(Nc2cnc(C(F)(F)F)cn2)c1C(=O)Nc1ccc(OCC2CCN(CC(F)F)C2)nc1 (stereo not drawn) [Example 122, N-(6-{[1-(2,2-difluoroethyl)pyrrolidin-3-yl]methoxy}pyridin-3-yl)-3-methyl-5-{[5-(trifluoromethyl)pyrazin-2-yl]amino}-1,2-thiazole-4-carboxamide] | ≥ 20 |
| CC(=O)N1CCC(Oc2ccc(NC(=O)c3c(C)nsc3Nc3cnc(C(F)(F)F)cn3)cn2)CC1 [Example 11, N-{6-[(1-Acetylpiperidin-4-yl)oxy]pyridin-3-yl}-3-methyl-5-{[5-(trifluoromethyl)-pyrazin-2-yl]amino}-1,2-thiazole-4-carboxamide] | ≥ 20 |
| Cc1nsc(Nc2cnc(C(F)(F)F)cn2)c1C(=O)Nc1ccc(OC2CCN(CCF)CC2)nc1 [Example 7, N-(6-{[1-(2-Fluoroethyl)piperidin-4-yl]oxy}pyridin-3-yl)-3-methyl-5-{[5-(trifluoromethyl)pyrazin-2-yl]amino}-1,2-thiazole-4-carboxamide] | ≥ 20 |
| Cc1nsc(Nc2cnc(C(F)(F)F)cn2)c1C(=O)Nc1ccc(OC2CCN(CCC(F)(F)F)CC2)nc1 [Example 426, 3-Methyl-5-{[5-(trifluoromethyl)pyrazin-2-yl]amino}-N-(6-{[1-(3,3,3-trifluoro-propyl)piperidin-4-yl]oxy}pyridin-3-yl)-1,2-thiazole-4-carboxamide, Salt with Hydrochloric Acid] | ≥ 20 |
